Laboratory results: patent publication US20200399238A1, “THERAPEUTIC AURONES” (MIDDLE TENNESSEE STATE UNIVERSITY, priority 2016, published 2020)
Where two headings read alike, the source gives them in different places.

Legend:
[1] = system: Trypanosoma cruzi Tulahuen cells expressing beta-galactosidase; experiment: T. cruzi intracellular assay (beta-galactosidase, L6 host cells); details: for Selectivity L6/TC-I: Table 3A; for Selectivity L6/TC-I / Selectivity L6/Tc-I: estimated from highest L6 dose tested where no L6 IC50; for IC50: Trypanosoma cruzi, TULAHUEN; for Selectivity L6/Tc-I: Table 3B
[2] = system: rat skeletal muscle cell line, L6; experiment: cells; format: cell-based
[3] = system: Trypanosoma brucei brucei 427 cells; experiment: T. brucei culture and assay (PrestoBlue); format: cell-based
[4] = system: Leishmania amazonensis promastigotes expressing beta-lactamase; experiment: microbe, parasite or virus in culture; format: cell-based; details: for IC50: Leishmania amazonensis, read-out: IC50 L. amaz.
[5] = read-out: IC50 T. cruzi, Table 1, intracellular assay, mean of 2(+) trials (^c one trial)
[6] = read-out: IC50 T. cruzi, Table 2, intracellular assay, mean of 2(+) independent trials
[7] = read-out: IC50 TC-I, Table 3A, weighted means of two or more independent trials
[8] = Rattus norvegicus, Table 1, read-out: IC50 Toxicity (L6)
[9] = Rattus norvegicus, Table 3A, weighted means of two or more independent trials, read-out: IC50 L6
[10] = Table 2, mean of 2(+) independent trials, read-out: IC50 T. brucei
[11] = Trypanosoma brucei, Table 1, mean of 2(+) independent trials, read-out: IC50 T. brucei
[12] = Table 2, L6 IC50 / L. amazonensis IC50
[13] = read-out: IC50 TC-I, Table 3B, weighted means of two or more independent trials
[14] = Rattus norvegicus, Table 3B, weighted means of two or more independent trials, read-out: IC50 L6
[15] = Table 1, intracellular T. cruzi IC50
[16] = Table 2, L6 IC50 / T. cruzi IC50 (intracellular assay)
[17] = Table 2, L6 mammalian cells, read-out: IC50 Toxicity (L6)
[18] = Table 2, L6 IC50 / T. brucei IC50
[19] = Table 3B, estimated from highest L6 dose tested where no L6 IC50

| Structure (SMILES) | IC50 [1, 5] [µM] | IC50 [1, 6] [µM] | IC50 [2, 8] [µM] | IC50 [3, 11] [µM] | IC50 [4] [µM] | Selectivity L6/La ([4]; Table 1) | Selectivity L6/La [4, 12] | melting point [°C] | IC50 [1, 13] [µM] | IC50 [2, 14] [µM] | also measured |
| --- | --- | --- | --- | --- | --- | --- | --- | --- | --- | --- | --- |
| CC(C)(C)c1ccc(/C=C2\Oc3ccccc3C2=O)cc1 [Aurone 3008, (Z)-2-(4-(tert-butyl)benzylidene)benzofuran-3(2H)-one] | > 50 | > 50 | 99.3 | > 50 | 3.57 | 27.81 | 27.81 | 87 to 90 | – | – | Selectivity L6/TC-I [1]: 7.94; IC50 [1, 7]: 12.5 µM; IC50 [2, 9]: 99.3 µM; IC50 [3, 10]: > 50 µM |
| COc1ccc2c(c1)O/C(=C\c1ccc(C#N)cc1)C2=O [Aurone 5006, (Z)-4-((6-methoxy-3-oxobenzofuran-2(3H)-ylidene)methyl)benzonitrile] | > 50 | > 50 | 213 | 30.3 | 4.79 | – | – | 180 to 181 | – | – | – |
| O=C1/C(=C/c2ccccn2)Oc2ccccc21 [Aurone 9051, (Z)-2-(pyridin-2-ylmethylene)benzofuran-3(2H)-one] | 19.4 | 19.4 | 79.6 | 23.2 | 6.26 | – | – | 119 to 121 | 19.4 | 79.6 | IC50 ([3]; Trypanosoma brucei, read-out: T. brucei IC50 dose): 23.2 µM |
| COc1cc(Br)c(/C=C2\Oc3ccccc3C2=O)cc1OC [Aurone 9056, (Z)-2-(2-bromo-4,5-dimethoxybenzylidene)benzofuran-3(2H)-one] | 36 | 36 | > 100 | 21.9 | 1.83 | – | – | 144 to 147 | – | – | – |
| COc1ccc2c(c1)O/C(=C\c1cccs1)C2=O [Aurone 5001, (Z)-6-methoxy-2-(thiophen-2-ylmethylene)benzofuran-3(2H)-one] | > 50 | – | > 100 | > 50 | 21.1 | >4.73 | – | 99 to 103 | – | – | – |
| O=C1/C(=C/c2ccc(Br)cn2)Oc2ccccc21 [Aurone 3011, (Z)-2-((5-bromopyridin-2-yl)methylene)benzofuran-3(2H)-one] | 32.9 | 32.9 | > 100 | > 50 | 2.61 | >38.31 | >38.31 | 192 to 193 | 32.9 | > 100 | Selectivity L6/Tc [1, 15]: >3.04; Selectivity L6/Tc [1, 16]: >3.04; Selectivity L6/Tc-I [1]: >3.04; IC50 [2, 17]: > 100 µM; IC50 [3, 10]: > 50 µM |
| N#Cc1ccc(/C=C2\Oc3cc(O)ccc3C2=O)cc1 [Aurone 9076, (Z)-4-((6-hydroxy-3-oxobenzofuran-2(3H)-ylidene)methyl)benzonitrile] | 26.3 | 26.3 | > 100 | > 50 | 2.44 | – | – | 112 to 115 | – | – | – |
| O=C1/C(=C/c2cc3ccccc3o2)Oc2ccccc21 [Aurone 3002, (Z)-2-(benzofuran-2-ylmethylene)benzofuran-3(2H)-one] | 6.44 | 6.44 | > 100 | 20.2 | 6.48 | >15.43 | >15.43 | 145 to 150 | 6.44 | > 100 | Selectivity L6/Tc [1, 15]: >15.53; Selectivity L6/Tc [1, 16]: >15.53; Selectivity L6/Tc-I [1]: >15.53; IC50 [2, 17]: > 100 µM; Selectivity L6/Tb ([3]; Table 1): >4.96; Selectivity L6/Tb [3, 18]: >4.96; Selectivity L6/Tb [3, 19]: >4.96 |
| O=C1/C(=C/c2cccnc2)Oc2ccccc21 [Aurone 9253, (Z)-2-(pyridin-3-ylmethylene)benzofuran-3(2H)-one] | 17.8 | 17.8 | < 100 | > 50 | 7.38 | – | – | 122 to 123 | 17.8 | > 100 | IC50 ([3]; Trypanosoma brucei, read-out: IC50 TB): > 50 µM |
| O=C1/C(=C/c2ccc(Br)s2)Oc2ccccc21 [Aurone 9058, (Z)-2-((5-bromothiophen-2-yl)methylene)benzofuran-3(2H)-one] | 34.8 | 34.8 | 79.3 | > 50 | 2.73 | 29.05 | 29.05 | 155 to 158 | 34.8 | 79.3 | Selectivity L6/Tc [1, 15]: 2.28; Selectivity L6/Tc [1, 16]: 2.28; Selectivity L6/Tc-I [1]: 2.28; IC50 [3, 10]: > 50 µM |
| O=C1/C(=C/c2ccsc2)Oc2ccccc21 [Aurone 3004, (Z)-2-(thiophen-3-ylmethylene)benzofuran-3(2H)-one] | 9.02 | 9.02 | > 100 | 38.7 | 24.2 | >4.13 | >4.13 | 125 to 126 | 9.02 | > 100 | Selectivity L6/Tc [1, 15]: >11.09; Selectivity L6/Tc [1, 16]: >11.09; Selectivity L6/Tc-I [1]: >11.09; IC50 ([1]; read-out: T. cruzi IC50 dose): 9.02 µM; IC50 [2, 17]: > 100 µM; activity against T. brucei [3]: moderate activity; Selectivity L6/Tb ([3]; Table 1): >2.58; Selectivity L6/Tb [3, 18]: >2.58; Selectivity L6/Tb [3, 19]: >2.58 |
| O=C1/C(=C/c2cccc(F)c2)Oc2ccccc21 [Aurone 9024, (Z)-2-(3-fluorobenzylidene)benzofuran-3(2H)-one] | 6.67 | 6.67 | > 100 | > 50 | 20.1 | >4.98 | >4.98 | 111 to 113 | – | – | Selectivity L6/TC-I [1]: 14.99; IC50 [1, 7]: 6.67 µM; IC50 [2, 9]: > 100 µM; IC50 [2, 17]: > 100 µM; IC50 [3, 10]: > 50 µM |
| O=C1/C(=C/c2ccccc2C(F)(F)F)Oc2ccccc21 [Aurone 9086, (Z)-2-(2-(trifluoromethyl)benzylidene)benzofuran-3(2H)-one] | 18.5 | 18.5 | 130 | 37.6 | 1.9 | – | – | 118 to 123 | – | – | – |
| CC(=O)Nc1ccc(/C=C2\Oc3ccccc3C2=O)cc1 [Aurone 3006, (Z)-N-(4-((3-oxobenzofuran-2(3H)-ylidene)methyl)phenyl)acetamide] | > 50 | – | > 100 | > 50 | 12.5 | >7.99 | – | 260 to 270 | – | – | IC50 ([1]; read-out: IC50 TC-I, Table 3C, intracellular T. cruzi, weighted means of two or more independent trials): > 50 µM; IC50 ([2]; Rattus norvegicus, Table 3C, weighted means of two or more independent trials, read-out: IC50 L6): > 100 µM |
| O=C1/C(=C/c2ccc(C(F)(F)F)cc2)Oc2ccccc21 [Aurone 9084, (Z)-2-(4-(trifluoromethyl)benzylidene)benzofuran-3(2H)-one] | 9.38 | 9.38 | > 400 | 20.4 | 2.94 | – | – | 98 to 102 | – | – | – |
